Measurements taken from the supplement of paper PMC10307832.

Key:
Assay in all cases: relative viability (nuclei count vs DMSO), 5 days (fraction); higher = more cells survive
[1] = compound: C=CC(=O)N1CCC[C@@H](n2nc(-c3ccc(Oc4ccccc4)cc3)c3c(N)ncnc32)C1 [Ibrutinib]
Outline: (§1)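 Lung cancer cell lines were seeded into 1536-well plates, kept overnight at 37 °C and pinned with five library-drug doses (not always all listed) spaced by √10. After 5 days, nuclei were Hoechst-stained, imaged at 4× and counted with MetaXpress. Viability is treated-well nuclei over vehicle-well nuclei, taken as a median across plates. Plates needed control CV below 25% and at least one doubling.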

[2] = compound: C=CC(=O)Nc1cc(-n2c(=O)ccc3cnc4ccc(-c5ccc(NS(C)(=O)=O)cc5)cc4c32)ccc1C [BMX-IN-1]
Outline: as §1

[3] = compound: C=CCc1cccc(/C=N/NC(=O)CN2CCN(Cc3ccccc3)CC2)c1O [PAC-1]
Outline: as §1

[4] = compound: C=CC(=O)Nc1cc(-n2c(=O)ccc3cnc4ccc(-c5ccc(NS(C)(=O)=O)cc5)cc4c32)ccc1C [BMX-IN-1] + C[C@@H](Oc1cc(-c2cnn(C3CCNCC3)c2)cnc1N)c1c(Cl)ccc(F)c1Cl [Crizotinib] (partner 1 µM)
Outline: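 Lung cancer cell lines were pin-tool dosed in 1536-well plates on the day after seeding, with either a lone drug or a fixed anchor-drug dose plus five library-drug doses (not always all listed) in √10 steps. Nuclei were counted on 4× images after 5 days. Relative viability is the ratio of treated-well to vehicle-well nuclei counts, with each value a median of duplicate plates.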

LXF-289
relative viability ([1]; 0.005 µM): 1.06
relative viability ([1]; 0.01581 µM): 1.01
relative viability ([1]; 0.05 µM): 1.04
relative viability ([1]; 0.1581 µM): 0.972
relative viability ([1]; 0.5 µM): 0.973
relative viability ([2]; 0.02 µM): 1.06
relative viability ([2]; 0.2 µM): 1.05
relative viability ([2]; 0.6325 µM): 1.01
relative viability ([2]; 2 µM): 1.02
relative viability ([3]; 0.02 µM): 0.974
relative viability ([3]; 0.06325 µM): 1.01
relative viability ([3]; 0.2 µM): 0.997
relative viability ([3]; 2 µM): 1.01
relative viability ([4]; first compound 0.02 µM): 0.876
relative viability ([4]; first compound 0.2 µM): 0.907
relative viability ([4]; first compound 0.6325 µM): 0.842
relative viability ([4]; first compound 2 µM): 0.815

HARA
relative viability ([1]; 0.005 µM): 0.976
relative viability ([1]; 0.01581 µM): 0.965
relative viability ([1]; 0.05 µM): 0.689
relative viability ([1]; 0.1581 µM): 0.793
relative viability ([1]; 0.5 µM): 0.457
relative viability ([2]; 0.02 µM): 1.05
relative viability ([2]; 0.2 µM): 1.04
relative viability ([2]; 0.6325 µM): 1.08
relative viability ([2]; 2 µM): 1.08
relative viability ([3]; 0.02 µM): 0.98
relative viability ([3]; 0.06325 µM): 1.08
relative viability ([3]; 0.2 µM): 0.905
relative viability ([3]; 2 µM): 1.03
relative viability ([4]; first compound 0.02 µM): 1.39
relative viability ([4]; first compound 0.2 µM): 1.24
relative viability ([4]; first compound 0.6325 µM): 1.16
relative viability ([4]; first compound 2 µM): 1.09

NCI-H1975
relative viability ([1]; 0.005 µM): 0.906
relative viability ([1]; 0.01581 µM): 0.781
relative viability ([1]; 0.05 µM): 0.827
relative viability ([1]; 0.1581 µM): 0.91
relative viability ([1]; 0.5 µM): 0.419
relative viability ([2]; 0.02 µM): 1.17
relative viability ([2]; 0.2 µM): 0.965
relative viability ([2]; 0.6325 µM): 1.14
relative viability ([2]; 2 µM): 0.872
relative viability ([3]; 0.02 µM): 0.97
relative viability ([3]; 0.06325 µM): 0.957
relative viability ([3]; 0.2 µM): 0.994
relative viability ([3]; 2 µM): 1.08
relative viability ([4]; first compound 0.02 µM): 1.31
relative viability ([4]; first compound 0.2 µM): 1.02
relative viability ([4]; first compound 0.6325 µM): 1.11
relative viability ([4]; first compound 2 µM): 0.86

UMC-11
relative viability ([1]; 0.005 µM): 0.75
relative viability ([1]; 0.01581 µM): 0.931
relative viability ([1]; 0.05 µM): 1.01
relative viability ([1]; 0.1581 µM): 0.937
relative viability ([1]; 0.5 µM): 0.922
relative viability ([2]; 0.02 µM): 1.11
relative viability ([2]; 0.2 µM): 1.1
relative viability ([2]; 0.6325 µM): 1.09
relative viability ([2]; 2 µM): 1.03
relative viability ([3]; 0.02 µM): 1
relative viability ([3]; 0.06325 µM): 0.969
relative viability ([3]; 0.2 µM): 1
relative viability ([3]; 2 µM): 1.01
relative viability ([4]; first compound 0.02 µM): 0.821
relative viability ([4]; first compound 0.2 µM): 0.579
relative viability ([4]; first compound 0.6325 µM): 0.633
relative viability ([4]; first compound 2 µM): 0.578

NCI-H2023
relative viability ([1]; 0.005 µM): 0.89
relative viability ([1]; 0.01581 µM): 0.849
relative viability ([1]; 0.05 µM): 0.891
relative viability ([1]; 0.1581 µM): 1.03
relative viability ([1]; 0.5 µM): 0.943
relative viability ([2]; 0.02 µM): 1.37
relative viability ([2]; 0.2 µM): 1.19
relative viability ([2]; 0.6325 µM): 1.13
relative viability ([2]; 2 µM): 1.08
relative viability ([3]; 0.02 µM): 0.973
relative viability ([3]; 0.06325 µM): 0.919
relative viability ([3]; 0.2 µM): 0.905
relative viability ([3]; 2 µM): 1.01
relative viability ([4]; first compound 0.02 µM): 0.865
relative viability ([4]; first compound 0.2 µM): 0.639
relative viability ([4]; first compound 0.6325 µM): 0.753
relative viability ([4]; first compound 2 µM): 0.676

Calu-6
relative viability ([1]; 0.005 µM): 1.1
relative viability ([1]; 0.01581 µM): 0.965
relative viability ([1]; 0.05 µM): 1
relative viability ([1]; 0.1581 µM): 1.01
relative viability ([1]; 0.5 µM): 1.03
relative viability ([2]; 0.02 µM): 1.14
relative viability ([2]; 0.2 µM): 1.06
relative viability ([2]; 0.6325 µM): 1.2
relative viability ([2]; 2 µM): 0.999
relative viability ([3]; 0.02 µM): 0.98
relative viability ([3]; 0.06325 µM): 1.01
relative viability ([3]; 0.2 µM): 0.964
relative viability ([3]; 2 µM): 1.01
relative viability ([4]; first compound 0.02 µM): 0.925
relative viability ([4]; first compound 0.2 µM): 0.886
relative viability ([4]; first compound 0.6325 µM): 0.927
relative viability ([4]; first compound 2 µM): 0.988

NCI-H1623
relative viability ([1]; 0.005 µM): 0.894
relative viability ([1]; 0.01581 µM): 0.842
relative viability ([1]; 0.05 µM): 0.672
relative viability ([1]; 0.1581 µM): 0.858
relative viability ([1]; 0.5 µM): 0.299
relative viability ([2]; 0.02 µM): 0.995
relative viability ([2]; 0.2 µM): 1.01
relative viability ([2]; 0.6325 µM): 0.988
relative viability ([2]; 2 µM): 0.882
relative viability ([3]; 0.02 µM): 0.966
relative viability ([3]; 0.06325 µM): 0.891
relative viability ([3]; 0.2 µM): 0.95
relative viability ([3]; 2 µM): 0.926

NCI-H1395
relative viability ([1]; 0.005 µM): 0.763
relative viability ([1]; 0.01581 µM): 1.04
relative viability ([1]; 0.05 µM): 0.855
relative viability ([1]; 0.1581 µM): 0.713
relative viability ([1]; 0.5 µM): 0.957
relative viability ([2]; 0.02 µM): 1.01
relative viability ([2]; 0.2 µM): 0.951
relative viability ([2]; 0.6325 µM): 0.97
relative viability ([2]; 2 µM): 0.892
relative viability ([3]; 0.02 µM): 1.02
relative viability ([3]; 0.06325 µM): 0.928
relative viability ([3]; 0.2 µM): 0.872
relative viability ([3]; 2 µM): 0.911

NCI-H2342
relative viability ([1]; 0.005 µM): 0.655
relative viability ([1]; 0.01581 µM): 0.875
relative viability ([1]; 0.05 µM): 0.888
relative viability ([1]; 0.1581 µM): 0.842
relative viability ([1]; 0.5 µM): 0.823
relative viability ([2]; 0.02 µM): 1.04
relative viability ([2]; 0.2 µM): 1.03
relative viability ([2]; 0.6325 µM): 1.06
relative viability ([2]; 2 µM): 0.939
relative viability ([3]; 0.02 µM): 1.09
relative viability ([3]; 0.06325 µM): 0.91
relative viability ([3]; 0.2 µM): 0.872
relative viability ([3]; 2 µM): 1.15

NCI-H522
relative viability ([1]; 0.005 µM): 0.796
relative viability ([1]; 0.01581 µM): 1.09
relative viability ([1]; 0.05 µM): 0.85
relative viability ([1]; 0.1581 µM): 0.752
relative viability ([1]; 0.5 µM): 0.76
relative viability ([2]; 0.02 µM): 0.882
relative viability ([2]; 0.2 µM): 0.906
relative viability ([2]; 0.6325 µM): 1.04
relative viability ([2]; 2 µM): 0.938
relative viability ([3]; 0.02 µM): 1.08
relative viability ([3]; 0.06325 µM): 1.1
relative viability ([3]; 0.2 µM): 0.872
relative viability ([3]; 2 µM): 1.05

NCI-H1648
relative viability ([1]; 0.005 µM): 0.758
relative viability ([1]; 0.01581 µM): 0.751
relative viability ([1]; 0.05 µM): 0.676
relative viability ([1]; 0.1581 µM): 0.792
relative viability ([1]; 0.5 µM): 0.63
relative viability ([2]; 0.02 µM): 0.937
relative viability ([2]; 0.2 µM): 0.878
relative viability ([2]; 0.6325 µM): 0.792
relative viability ([2]; 2 µM): 0.829
relative viability ([3]; 0.02 µM): 0.795
relative viability ([3]; 0.06325 µM): 1.07
relative viability ([3]; 0.2 µM): 0.931
relative viability ([3]; 2 µM): 0.991
